One assay deals with BRD4-BD12 (1-477) (Homo sapiens (Human), UniProt O60885). Kind of assay: Alphascreen binding assay BRD4-BD12. The note with it: BRD4(1 2) H4; read-out: Biochemical activity (IC50 μM) BRD4(1 2) H4. The gist of the method:
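First, compound was preincubated 1 h at room temperature with the His-tagged BRD4 protein (BD1 44-164 or tandem BD12 1-477) and acetylated H4 peptide. Next, donor and acceptor beads were added at 7.5 μg/ml final. After 30 min, AlphaScreen emission was recorded.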
(In general: In Alpha technology, singlet oxygen from a donor bead excites a nearby acceptor bead.)

Another assay relates to bromodomain. Kind of assay: at least one of the bromodomain cell assays of Example 57. It counts as cell-based. Conditions: at least one of the bromodomain cell assays described in Example 57; read-out: IC50 in at least one of the bromodomain cell assays.
A further assay has as its system MV-4-11 cells. Kind of assay: Oncology cell growth assay MV-4-11 (CellTiter Glo). It counts as cell-based. Conditions: Homo sapiens, MV4-11, 72 h; read-out: Cell activity (IC50 μM) MV-4-11 3d-Growth. The gist of the method: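 MV-4-11 AML cells (MLL-AF4), 3000 per well, exposed to 8-point 1:3 compound titration from 10 μM top concentration (0.2% DMSO) for 72 h. Viability by CellTiter Glo luminescence, normalized to DMSO controls; pIC50 from four-parameter curve fit.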
A general note: In ATP-based viability assays light output follows the ATP content of the culture.

As to `[2H]C([2H])(C1CC(F)(F)C1)n1cc(-c2cnn(C(F)F)c2)c2ncc(-c3c(C)noc3C)cc21` [P-0256, 4-[1-[dideuterio-(3,3-difluorocyclobutyl)methyl]-3-[1-(difluoromethyl)pyrazol-4-yl]pyrrolo[3,2-b]pyridin-6-yl]-3,5-dimethyl-isoxazole], the values for the IC50 on BRD4-BD12 (1-477), in the assay on bromodomain and in the assay with MV-4-11 cells were under 1 µM, under 10000 nM and under 1 µM, respectively.
With `[2H]C([2H])(C1CC(F)(F)C1)n1cc(-c2cnn(CCF)c2)c2ncc(-c3c(C)noc3C)cc21` [P-0258, 4-[1-[dideuterio-(3,3-difluorocyclobutyl)methyl]-3-[1-(2-fluoroethyl)pyrazol-4-yl]pyrrolo[3,2-b]pyridin-6-yl]-3,5-dimethyl-isoxazole], the IC50 – broadly, the point on the concentration scale where inhibition reaches its midpoint – on BRD4-BD12 (1-477) was under 1 µM; with bromodomain, under 10000 nM; in the assay with MV-4-11 cells it was under 1 µM.
In the case of `[2H]C([2H])(C1CC(F)(F)C1)n1cc(-c2cnc(C3CC3)nc2)c2ncc(-c3c(C)noc3C)cc21` [P-0259, 4-[3-(2-cyclopropylpyrimidin-5-yl)-1-[dideuterio-(3,3-difluorocyclobutyl)methyl]pyrrolo[3,2-b]pyridin-6-yl]-3,5-dimethyl-isoxazole], the IC50 at BRD4-BD12 (1-477) is under 1 µM; in the assay on bromodomain, under 10000 nM; in the assay on MV-4-11 cells it was under 1 µM.
Turning to `Cc1noc(C)c1-c1cnc2c(-c3cnn(CCF)c3)cn(CC3(F)CCCCC3)c2c1` [P-0260, 4-[1-[(1-fluorocyclohexyl)methyl]-3-[1-(2-fluoroethyl)pyrazol-4-yl]pyrrolo[3,2-b]pyridin-6-yl]-3,5-dimethyl-isoxazole], the IC50 on BRD4-BD12 (1-477) is under 1 µM; with bromodomain, under 10000 nM; in the assay on MV-4-11 cells it was under 1 µM.
On to `Cc1noc(C)c1-c1cnc2c(-c3cnn(C(F)F)c3)cn(CC3(F)CCC(O)CC3)c2c1` (stereo not drawn) [P-0261, 4-[[3-[1-(difluoromethyl)pyrazol-4-yl]-6-(3,5-dimethylisoxazol-4-yl)pyrrolo[3,2-b]pyridin-1-yl]methyl]-4-fluoro-cyclohexanol], for which the half-maximal inhibitory concentration (IC50) on BRD4-BD12 (1-477) was under 1 µM; in the assay with bromodomain, under 10000 nM; in the assay with MV-4-11 cells, under 1 µM.
Take `Cc1cc(-c2cnc3ccn(CC4CCC(F)(F)CC4)c3c2)cnn1` [P-0286]: the values for the IC50 at BRD4-BD12 (1-477), in the assay on bromodomain and in the assay on MV-4-11 cells were under 1 µM, under 10000 nM and 10 to 200 µM, respectively.
Consider `[2H]C([2H])(C1CCC(F)(F)CC1)n1cc(-c2cnco2)c2ncc(-c3c(C)noc3C)cc21` [P-0334, 4-[1-[dideuterio-(4,4-difluorocyclohexyl)methyl]-3-oxazol-5-yl-pyrrolo[3,2-b]pyridin-6-yl]-3,5-dimethyl-isoxazole], for which the half-inhibitory concentration (IC50) at BRD4-BD12 (1-477) was under 1 µM; in the assay on bromodomain it was under 10000 nM; in the assay on MV-4-11 cells, under 1 µM.
In the case of `[2H]C([2H])(C1CCC(F)(F)CC1)n1cc(-c2cn(C)nc2C)c2ncc(-c3c(C)noc3C)cc21` [P-0335, 4-[1-[dideuterio-(4,4-difluorocyclohexyl)methyl]-3-(1,3-dimethylpyrazol-4-yl)pyrrolo[3,2-b]pyridin-6-yl]-3,5-dimethyl-isoxazole], the results for the half-maximal inhibitory concentration (IC50) on BRD4-BD12 (1-477), in the assay on bromodomain and with MV-4-11 cells were under 1 µM, under 10000 nM and under 1 µM, respectively.
Consider `[2H]C([2H])(C1CCC(F)(F)CC1)n1cc(-c2cnn(CC)c2)c2ncc(-c3c(C)noc3C)cc21` [P-0336, 4-[1-[dideuterio-(4,4-difluorocyclohexyl)methyl]-3-(1-ethylpyrazol-4-yl)pyrrolo[3,2-b]pyridin-6-yl]-3,5-dimethyl-isoxazole], for which the values for the IC50 at BRD4-BD12 (1-477), in the assay on bromodomain and in the assay on MV-4-11 cells were under 1 µM, under 10000 nM and under 1 µM, respectively.
Turning to `[2H]C([2H])(C1CCC(F)(F)CC1)n1cc(-c2cn(C)nc2C(F)(F)F)c2ncc(-c3c(C)noc3C)cc21` [P-0337, 4-[1-[dideuterio-(4,4-difluorocyclohexyl)methyl]-3-[1-methyl-3-(trifluoromethyl)pyrazol-4-yl]pyrrolo[3,2-b]pyridin-6-yl]-3,5-dimethyl-isoxazole], the values for the IC50 on BRD4-BD12 (1-477), in the assay on bromodomain and in the assay on MV-4-11 cells were under 1 µM, under 10000 nM and under 1 µM, respectively.
As for `[2H]C([2H])(C1CCC(F)(F)CC1)n1cc(-c2cnn(C)c2C)c2ncc(-c3c(C)noc3C)cc21` [P-0338, 4-[1-[dideuterio-(4,4-difluorocyclohexyl)methyl]-3-(1,5-dimethylpyrazol-4-yl)pyrrolo[3,2-b]pyridin-6-yl]-3,5-dimethyl-isoxazole], the IC50 on BRD4-BD12 (1-477) is under 1 µM; with bromodomain, under 10000 nM; in the assay with MV-4-11 cells it was under 1 µM.
On to `[2H]C([2H])(C1CCC(F)(F)CC1)n1cc(-c2cnn(CCC#N)c2)c2ncc(-c3c(C)noc3C)cc21` [P-0339, 3-[4-[1-[dideuterio-(4,4-difluorocyclohexyl)methyl]-6-(3,5-dimethylisoxazol-4-yl)pyrrolo[3,2-b]pyridin-3-yl)pyrazol-1-yl]propanenitrile], for which the values for the IC50 on BRD4-BD12 (1-477), in the assay on bromodomain and with MV-4-11 cells were under 1 µM, under 10000 nM and under 1 µM, respectively.
`[2H]C([2H])(C1CCC(F)(F)CC1)n1cc(-c2cccnc2)c2ncc(-c3c(C)noc3C)cc21` [P-0340, 4-[1-[dideuterio-(4,4-difluorocyclohexyl)methyl]-3-(3-pyridyl)pyrrolo[3,2-b]pyridin-6-yl]-3,5-dimethyl-isoxazole]: the 50% inhibitory concentration (IC50) was under 1 µM at BRD4-BD12 (1-477), under 10000 nM in the assay on bromodomain and under 1 µM in the assay on MV-4-11 cells.
As to `[2H]C([2H])(C1CCC(F)(F)CC1)n1cc(-c2ccnc(C3CC3)c2)c2ncc(-c3c(C)noc3C)cc21` [P-0341, 4-[3-(2-cyclopropyl-4-pyridyl)-1-[dideuterio-(4,4-difluorocyclohexyl)methyl]pyrrolo[3,2-b]pyridin-6-yl]-3,5-dimethyl-isoxazole], the half-maximal inhibitory concentration (IC50) was under 1 µM at BRD4-BD12 (1-477), under 10000 nM in the assay with bromodomain and under 1 µM in the assay on MV-4-11 cells.
On to `[2H]C([2H])(C1CCC(F)(F)CC1)n1cc(-c2ccc(O)nc2)c2ncc(-c3c(C)noc3C)cc21` [P-0342, 5-[1-[dideuterio-(4,4-difluorocyclohexyl)methyl]-6-(3,5-dimethylisoxazol-4-yl)pyrrolo[3,2-b]pyridin-3-yl]pyridin-2-ol], for which the half-maximal inhibitory concentration (IC50) is under 1 µM on BRD4-BD12 (1-477), under 10000 nM in the assay on bromodomain and under 1 µM with MV-4-11 cells.
In the case of `[2H]C([2H])(C1CCC(F)(F)CC1)n1cc(-c2ccc(OC)nc2)c2ncc(-c3c(C)noc3C)cc21` [P-0343, 4-[1-[dideuterio-(4,4-difluorocyclohexyl)methyl]-3-(6-methoxy-3-pyridyl)pyrrolo[3,2-b]pyridin-6-yl]-3,5-dimethyl-isoxazole], the half-inhibitory concentration (IC50) was under 1 µM at BRD4-BD12 (1-477), under 10000 nM with bromodomain and under 1 µM in the assay on MV-4-11 cells.
With `[2H]C([2H])(C1CCC(F)(F)CC1)n1cc(-c2ccc(C)nc2)c2ncc(-c3c(C)noc3C)cc21` [P-0344, 4-[1-[dideuterio-(4,4-difluorocyclohexyl)methyl]-3-(6-methyl-3-pyridyl)pyrrolo[3,2-b]pyridin-6-yl]-3,5-dimethyl-isoxazole], the IC50 at BRD4-BD12 (1-477) was under 1 µM; in the assay on bromodomain, under 10000 nM; in the assay on MV-4-11 cells, under 1 µM.
As for `[2H]C([2H])(C1CCC(F)(F)CC1)n1cc(-c2ccc(=O)n(C)c2)c2ncc(-c3c(C)noc3C)cc21` [P-0345, 5-[1-[dideuterio-(4,4-difluorocyclohexyl)methyl]-6-(3,5-dimethylisoxazol-4-yl)pyrrolo[3,2-b]pyridin-3-yl]-1-methyl-pyridin-2-one], the IC50 on BRD4-BD12 (1-477) is under 1 µM; in the assay with bromodomain it was under 10000 nM; in the assay on MV-4-11 cells it was under 1 µM.
Regarding `[2H]C([2H])(C1CCC(F)(F)CC1)n1cc(-c2cnc(OC)nc2)c2ncc(-c3c(C)noc3C)cc21` [P-0346, 4-[1-[dideuterio-(4,4-difluorocyclohexyl)methyl]-3-(2-methoxypyrimidin-5-yl)pyrrolo[3,2-b]pyridin-6-yl]-3,5-dimethyl-isoxazole], the IC50 was under 1 µM on BRD4-BD12 (1-477), under 10000 nM in the assay on bromodomain and under 1 µM in the assay with MV-4-11 cells.
As for `[2H]C([2H])(C1CCC(F)(F)CC1)n1cc(-c2ccc(N)nc2)c2ncc(-c3c(C)noc3C)cc21` [P-0347, 5-[1-[dideuterio-(4,4-difluorocyclohexyl)methyl]-6-(3,5-dimethylisoxazol-4-yl)pyrrolo[3,2-b]pyridin-3-yl]pyridin-2-amine], the IC50 at BRD4-BD12 (1-477) is under 1 µM; in the assay with bromodomain, under 10000 nM; in the assay on MV-4-11 cells, under 1 µM.
`[2H]C([2H])(C1CCC(F)(F)CC1)n1cc(-c2cnc(N)nc2)c2ncc(-c3c(C)noc3C)cc21` [P-0348, 5-[1-[dideuterio-(4,4-difluorocyclohexyl)methyl]-6-(3,5-dimethylisoxazol-4-yl)pyrrolo[3,2-b]pyridin-3-yl]pyrimidin-2-amine]: the values for the half-inhibitory concentration (IC50) on BRD4-BD12 (1-477), in the assay on bromodomain and in the assay on MV-4-11 cells were under 1 µM, under 10000 nM and under 1 µM, respectively.
As to `[2H]C([2H])(C1CCC(F)(F)CC1)n1cc(-c2cnc(C3CC3)nc2)c2ncc(-c3c(C)noc3C)cc21` [P-0349, 4-[3-(2-cyclopropylpyrimidin-5-yl)-1-[dideuterio-(4,4-difluorocyclohexyl)methyl)pyrrolo[3,2-b]pyridin-6-yl]-3,5-dimethyl-isoxazole], the 50% inhibitory concentration (IC50) on BRD4-BD12 (1-477) is under 1 µM; with bromodomain, under 10000 nM; in the assay on MV-4-11 cells, under 1 µM.
As for `Cc1noc(C)c1-c1cnc2c(-c3cnn(C(F)F)c3)cn(Cc3ncccn3)c2c1` [P-0350, 4-[3-[1-(difluoromethyl)pyrazol-4-yl]-1-(pyrimidin-2-ylmethyl)pyrrolo[3,2-b]pyridin-6-yl]-3,5-dimethyl-isoxazole], the half-inhibitory concentration (IC50) at BRD4-BD12 (1-477) is under 1 µM; in the assay with bromodomain, under 10000 nM; in the assay with MV-4-11 cells it was under 1 µM.

The values above are taken from patent US10519177B2, “Heterocyclic compounds and uses thereof” (Plexxikon Inc., priority 2013, dated 2019).
